EC50 data for 30 molecules are collected here from US8846733B2, “Oxazolyl-methylether derivatives as ALX receptor agonists” (Actelion Pharmaceuticals Ltd., priority 2010, dated 2014).

What is called EC50 is the concentration at which the effect is half-maximal.

The first assay deals with T1, recombinant human ALX receptor (Homo sapiens, UniProt P25090).
T1 construct: expressed in transfected cells; host or cells: HEK293 (HEK293-hALXR-Gα16)
T1 sequence (P25090 1-351): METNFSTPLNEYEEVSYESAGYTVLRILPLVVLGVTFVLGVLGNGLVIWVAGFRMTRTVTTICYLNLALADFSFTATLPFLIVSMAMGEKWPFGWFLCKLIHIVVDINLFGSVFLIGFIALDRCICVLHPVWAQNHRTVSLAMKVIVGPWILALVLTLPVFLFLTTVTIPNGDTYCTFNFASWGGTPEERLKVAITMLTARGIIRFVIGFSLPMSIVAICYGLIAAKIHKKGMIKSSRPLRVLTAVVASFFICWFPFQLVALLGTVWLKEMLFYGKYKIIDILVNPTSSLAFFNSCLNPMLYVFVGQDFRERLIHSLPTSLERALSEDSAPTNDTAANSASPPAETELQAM
Briefly: Intracellular calcium measurements (FLIPR), ALX receptor agonistic activity. To be noted: HEK293-hALXR-Gα16 cells; Table 1, exemplified compounds. The assay is classed as cell-based. The protocol:
The ALX receptor agonistic activity of the compounds of formula (I) is determined in accordance with the following experimental method.
Intracellular Calcium Measurements:
Cells expressing recombinant human ALX receptor and the G-protein Gα16 (HEK293-hALXR-Gα16) were grown to 80% confluency in Growing Medium (GM). Cells were detached from culture dishes with a cell dissociation buffer (Invitrogen, 13151-014), and collected by centrifugation at 1,000 rpm at rt for 5 min in Assay Buffer (AB) (equal parts of Hank's BSS (Gibco, 14065-049) and DMEM without Phenol Red (Gibco, 11880-028)). After 60 min incubation at 37° C. under 5% CO2 in AB supplemented with 1 μM Fluo-4 (AM) (Invitrogen, F14202) and 20 mM HEPES (Gibco, 15630-056), the cells were washed and resuspended in AB. They were then seeded onto 384-well FLIPR assay plates (Greiner, 781091) at 50,000 cells in 70 μl per well and sedimented by centrifugation at 1,000 rpm for 1 min. Stock solutions of test compounds were made up at a concentration of 10 mM in DMSO, and serially diluted in AB to concentrations required for activation dose response curves. WKYMVm (Phoenix Peptides) was used as a reference agonist. A FLIPR Tetra instrument (Molecular Devices) was operated according to the manufacturer's standard instructions, adding 4 μl of test compound dissolved at 10 mM in DMSO and diluted prior to the experiment in assay buffer to obtain the desired final concentration. Changes in fluorescence were monitored before and after the addition of test compounds at lex=488 nm and lem=540 nm. Emission peak values above base level after compounds addition were exported after base line subtraction. Values were normalized to high-level control (WKYMVm compound, 10 nM final concentration) after subtraction of the base line value (AB addition).
(A change in cytosolic calcium serves as a functional read-out for many receptors and channels.)
As to `COC(C)(C)c1coc(Cn2ncc(NC(=O)c3nc(C)oc3-c3cccc(C)c3)n2)n1` [Example 1, N-(2-((4-(2-Methoxypropan-2-yl)oxazol-2-yl)methyl)-2H-1,2,3-triazol-4-yl)-2-methyl-5-(m-tolyl)oxazole-4-carboxamide], the EC50 came out at 6.6 nM.
For the molecule `COCc1coc(Cn2ncc(NC(=O)c3nc(C)oc3-c3ccccc3)n2)n1` [Example 3, N-(2-((4-(Methoxymethyl)oxazol-2-yl)methyl)-2H-1,2,3-triazol-4-yl)-2-methyl-5-phenyloxazole-4-carboxamide], the EC50 was determined as 4.3 nM.
On to `COCc1coc(Cn2ncc(NC(=O)c3nc(C)oc3-c3cccc(Cl)c3)n2)n1` [Example 4, 5-(3-Chlorophenyl)-N-(2-((4-(methoxymethyl)oxazol-2-yl)methyl)-2H-1,2,3-triazol-4-yl)-2-methyloxazole-4-carboxamide], for which the EC50 was determined as 2.1 nM.
In the case of `COCc1coc(Cn2ncc(NC(=O)c3nc(C)oc3-c3cccc(C(F)(F)F)c3)n2)n1` [Example 5, N-(2-((4-(Methoxymethyl)oxazol-2-yl)methyl)-2H-1,2,3-triazol-4-yl)-2-methyl-5-(3-(trifluoromethyl)phenyl)oxazole-4-carboxamide], the EC50 amounted to 5.6 nM.
As to `COCc1coc(Cn2ncc(NC(=O)c3ncoc3-c3cccc(Cl)c3)n2)n1` [Example 6, 5-(3-Chlorophenyl)-N-(2-((4-(methoxymethyl)oxazol-2-yl)methyl)-2H-1,2,3-triazol-4-yl)oxazole-4-carboxamide], the EC50 was 4 nM.
For `COCc1coc(Cn2ncc(NC(=O)c3ncoc3-c3cccc(OC)c3)n2)n1` [Example 7, N-(2-((4-(Methoxymethyl)oxazol-2-yl)methyl)-2H-1,2,3-triazol-4-yl)-5-(3-methoxyphenyl)oxazole-4-carboxamide], the EC50 is 17.5 nM.
Turning to `COCc1coc(Cn2ncc(NC(=O)c3nc(C)oc3-c3cccc(OC)c3)n2)n1` [Example 8, N-(2-((4-(Methoxymethyl)oxazol-2-yl)methyl)-2H-1,2,3-triazol-4-yl)-5-(3-methoxyphenyl)-2-methyloxazole-4-carboxamide], the EC50 came out at 8.8 nM.
On the same count and under the same terms, next, `COCc1coc(Cn2ncc(NC(=O)c3nc(C)oc3-c3cccc(F)c3)n2)n1` [Example 9, 5-(3-Fluorophenyl)-N-(2-((4-(methoxymethyl)oxazol-2-yl)methyl)-2H-1,2,3-triazol-4-yl)-2-methyloxazole-4-carboxamide]: 3.7 nM; `COCc1coc(Cn2ncc(NC(=O)c3ncoc3-c3cccc(C)c3)n2)n1` [Example 10, N-(2-((4-(Methoxymethyl)oxazol-2-yl)methyl)-2H-1,2,3-triazol-4-yl)-5-(m-tolyl)oxazole-4-carboxamide]: 4.6 nM; `COCc1coc(Cn2ncc(NC(=O)c3nc(C)oc3-c3cccc(OC(F)(F)F)c3)n2)n1` [Example 11, N-(2-((4-(Methoxymethyl)oxazol-2-yl)methyl)-2H-1,2,3-triazol-4-yl)-2-methyl-5-(3-(trifluoromethoxy)phenyl)oxazole-4-carboxamide]: 7.4 nM.
As for `COCc1coc(Cn2ncc(NC(=O)c3nc(C4CC4)oc3-c3cccc(C)c3)n2)n1` [Example 12, 2-Cyclopropyl-N-(2-((4-(methoxymethyl)oxazol-2-yl)methyl)-2H-1,2,3-triazol-4-yl)-5-(m-tolyl)oxazole-4-carboxamide], the EC50 was 11.6 nM.
On to `COCc1coc(Cn2ncc(NC(=O)c3ncoc3-c3ccccc3)n2)n1` [Example 13, N-(2-((4-(Methoxymethyl)oxazol-2-yl)methyl)-2H-1,2,3-triazol-4-yl)-5-phenyloxazole-4-carboxamide], for which the EC50 came to 5 nM.
Turning to `CCOCc1coc(Cn2ncc(NC(=O)c3nc(C)oc3-c3cccc(C)c3)n2)n1` [Example 14, N-(2-((4-(ethoxymethyl)oxazol-2-yl)methyl)-2H-1,2,3-triazol-4-yl)-2-methyl-5-(m-tolyl)oxazole-4-carboxamide], the concentration for a half-maximal effect (EC50) came to 6.7 nM.
For `CCOCc1coc(Cn2ncc(NC(=O)c3ncoc3-c3ccccc3)n2)n1` [Example 15, N-(2-((4-(ethoxymethyl)oxazol-2-yl)methyl)-2H-1,2,3-triazol-4-yl)-5-phenyloxazole-4-carboxamide], the 50% effective concentration (EC50) is 8.6 nM.

Still in this assay, the particulars now being: HEK293-hALXR-Gα16 cells; Table 2, compound failing within formula I of WO 2009/077990.
With `CC(=O)c1nc(Cn2ncc(NC(=O)c3ncoc3-c3ccccc3)n2)co1`, the half-maximal effective concentration (EC50) stood at 1.5 nM.
Same read-out and setting: with `CC(=O)c1nc(Cn2ncc(NC(=O)c3nc(C)oc3-c3cccc(C)c3)n2)co1` the figure was 0.9 nM; with `CC(=O)c1csc(Cn2ncc(NC(=O)c3ncoc3-c3ccccc3)n2)n1` [example 39], 8.1 nM; with `CC(=O)c1nc(Cn2ncc(NC(=O)c3ncoc3-c3ccccc3)n2)cs1` [example 45], 93 nM.
Still for that read-out and setting: with `CC(=O)c1ncc(Cn2ncc(NC(=O)c3ncoc3-c3ccccc3)n2)s1` [example 67] the figure was 73 nM; with `CC(=O)c1cnc(Cn2ncc(NC(=O)c3ncoc3-c3ccccc3)n2)s1` [example 73], 88 nM.

The same assay, now with this note: HEK293-hALXR-Gα16 cells; Table 2, reference compounds.
Turning to `COCc1ncc(Cn2ncc(NC(=O)c3nc(C)oc3-c3cccc(C)c3)n2)s1` [reference compound 1, N-(2-((2-(Methoxymethyl)thiazol-5-yl)methyl)-2H-1,2,3-triazol-4-yl)-2-methyl-5-(m-tolyl)oxazole-4-carboxamide], the EC50 turned out to be 4810 nM.
With `COCc1cnc(Cn2ncc(NC(=O)c3nc(C)oc3-c3cccc(C)c3)n2)s1` [reference compound 2, N-(2-((5-(Methoxymethyl)thiazol-2-yl)methyl)-2H-1,2,3-triazol-4-yl)-2-methyl-5-(m-tolyl)oxazole-4-carboxamide], the EC50 was 2540 nM.
As for `COCc1ccc(Cn2ncc(NC(=O)c3ncoc3-c3ccccc3)n2)o1` [reference compound 3, N-(2-((5-(methoxymethyl)furan-2-yl)methyl)-2H-1,2,3-triazol-4-yl)-5-phenyloxazole-4-carboxamide], the EC50 is 498 nM.
With `COCc1ccc(Cn2ncc(NC(=O)c3ncoc3-c3ccccc3)n2)s1` [reference compound 4, N-(2-((5-(methoxymethyl)thiophen-2-yl)methyl)-2H-1,2,3-triazol-4-yl)-5-phenyloxazole-4-carboxamide], the EC50 worked out at 2300 nM.
For the molecule `COCc1csc(Cn2ncc(NC(=O)c3ncoc3-c3ccccc3)n2)n1` [reference compound 5, N-(2-((4-(methoxymethyl)thiazol-2-yl)methyl)-2H-1,2,3-triazol-4-yl)-5-phenyloxazole-4-carboxamide], the EC50 worked out at 48 nM.
Consider `COCc1nc(Cn2ncc(NC(=O)c3ncoc3-c3ccccc3)n2)cs1` [reference compound 6, N-(2-((2-(methoxymethyl)thiazol-4-yl)methyl)-2H-1,2,3-triazol-4-yl)-5-phenyloxazole-4-carboxamide], for which the EC50 came out at 146 nM.
In the case of `COCc1ncc(Cn2ncc(NC(=O)c3ncoc3-c3ccccc3)n2)s1` [reference compound 7, N-(2-((2-(methoxymethyl)thiazol-5-yl)methyl)-2H-1,2,3-triazol-4-yl)-5-phenyloxazole-4-carboxamide], the EC50 was 8130 nM.
On to `COCc1cnc(Cn2ncc(NC(=O)c3ncoc3-c3ccccc3)n2)s1` [reference compound 8, N-(2-((5-(methoxymethyl)thiazol-2-yl)methyl)-2H-1,2,3-triazol-4-yl)-5-phenyloxazole-4-carboxamide], for which the EC50 was 5950 nM.
With `COC(C)(C)c1nc(Cn2ncc(NC(=O)c3ncoc3-c3ccccc3)n2)co1` [reference compound 9, N-(2-((2-(2-methoxypropan-2-yl)oxazol-4-yl)methyl)-2H-1,2,3-triazol-4-yl)-5-phenyloxazole-4-carboxamide], the EC50 came to 685 nM.
On to `COCc1nc(Cn2ncc(NC(=O)c3nc(C)oc3-c3cccc(C)c3)n2)co1` [reference compound 10, N-(2-((2-(Methoxymethyl)oxazol-4-yl)methyl)-2H-1,2,3-triazol-4-yl)-2-methyl-5-(m-tolyl)oxazole-4-carboxamide], for which the EC50 is 8.1 nM.
